Where “and” joins values, the source holds several entries; their conditions need not be identical. Identical values can stand only once. Inconclusive results and toxic doses are left out.
Test system: P388 leukemia ip, CD2F1 mice, survival T/C
Test: NCI In Vivo Anticancer Drug Screen. Data for tumor model P388 Leukemia (intraperitoneal) in CD2F1 (CDF1) mice
Conditions: endpoint: median survival time, higher = longer survival
In short: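 Mice carrying the transplanted tumor received test compound or vehicle. Survival was recorded in each group, and the value is the treated-group measurement divided by that of the vehicle-treated control group.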

[1] = dose: 100.0 mg/kg/injection, schedule: Q01DX009 (ip), vehicle: saline
[2] = dose: 200.0 mg/kg/injection, schedule: Q01DX009 (ip), vehicle: saline
[3] = dose: 50.0 mg/kg/injection, schedule: Q01DX009 (ip), vehicle: Klucel (hydroxypropylcellulose) (HPC)
[4] = dose: 100.0 mg/kg/injection, schedule: Q01DX009 (ip), vehicle: Klucel (hydroxypropylcellulose) (HPC)
[5] = dose: 200.0 mg/kg/injection, schedule: Q01DX009 (ip), vehicle: Klucel (hydroxypropylcellulose) (HPC)

NCCCN=c1ccc2c3c1c(O)c1c(O)ccc(=O)c1c3[nH]n2CCNCCO
T/C (dose: 3.12 mg/kg/injection, schedule: Q04DX002 (ip), vehicle: saline): 165 % of control
T/C (dose: 3.12 mg/kg/injection, schedule: Q04DX002 (ip), vehicle: water): 165 % of control
T/C (dose: 6.25 mg/kg/injection, schedule: Q04DX002 (ip), vehicle: saline): 165 % of control
T/C (dose: 6.25 mg/kg/injection, schedule: Q04DX002 (ip), vehicle: water): 172 % of control
T/C (dose: 9.72 mg/kg/injection, schedule: Q04DX002 (ip), vehicle: water): 196 % of control
T/C (dose: 12.5 mg/kg/injection, schedule: Q04DX002 (ip), vehicle: saline): 190 % of control
T/C (dose: 12.5 mg/kg/injection, schedule: Q04DX002 (ip), vehicle: water): 177 % of control
T/C (dose: 16.2 mg/kg/injection, schedule: Q04DX002 (ip), vehicle: water): 199 % of control
T/C (dose: 17.0 mg/kg/injection, schedule: Q01DX001 (ip), vehicle: water): 268 % of control
T/C (dose: 25.0 mg/kg/injection, schedule: Q04DX002 (ip), vehicle: saline): 207 % of control
T/C (dose: 25.0 mg/kg/injection, schedule: Q04DX002 (ip), vehicle: water): 250 % of control
T/C (dose: 27.0 mg/kg/injection, schedule: Q04DX002 (ip), vehicle: water): 245 % of control
T/C (dose: 45.0 mg/kg/injection, schedule: Q04DX002 (ip), vehicle: water): 323 % of control
T/C (dose: 50.0 mg/kg/injection, schedule: Q04DX002 (ip), vehicle: saline): 254 % of control
T/C (dose: 50.0 mg/kg/injection, schedule: Q04DX002 (ip), vehicle: water): 272 % of control

[Cl][Sn]([CH2][Sn]([Cl])([c]1ccccc1)[c]1ccccc1)([c]1ccccc1)[c]1ccccc1
T/C (dose: 0.39 mg/kg/injection, schedule: Q01DX005 (ip), vehicle: Klucel (hydroxypropylcellulose) (HPC)): 103 % of control
T/C (dose: 0.79 mg/kg/injection, schedule: Q01DX005 (ip), vehicle: Klucel (hydroxypropylcellulose) (HPC)): 104 % of control
T/C (dose: 1.56 mg/kg/injection, schedule: Q01DX005 (ip), vehicle: Klucel (hydroxypropylcellulose) (HPC)): 106 % of control
T/C (dose: 3.12 mg/kg/injection, schedule: Q01DX005 (ip), vehicle: Klucel (hydroxypropylcellulose) (HPC)): 97 % of control
T/C (dose: 12.5 mg/kg/injection, schedule: Q01DX005 (ip), vehicle: Klucel (hydroxypropylcellulose) (HPC)): 116 % of control

CNCCc1ccc(O)c(O)c1
T/C [1]: 108 % of control and 118 % of control
T/C [2]: 111 % of control and 98 % of control
T/C (dose: 400.0 mg/kg/injection, schedule: Q01DX009 (ip), vehicle: saline): 116 % of control and 90 % of control

CN(C)CC(OCCc1ccccc1)C(Cl)(Cl)Cl (stereo unspecified)
T/C [3]: 107 % of control
T/C [4]: 109 % of control
T/C [5]: 109 % of control

CCOC(=O)c1cccc2c(=O)c3c([nH]c12)C(=O)c1c([nH]c2c(C(=O)OCC)cccc2c1=O)C3=O
T/C [3]: 98 % of control
T/C [4]: 90 % of control
T/C [5]: 90 % of control

CCCCCCCC(=O)Nc1nnc(SCCCCCCSc2nnc(NC(=O)CCCCCCC)s2)s1
T/C (dose: 50.0 mg/kg/injection, schedule: Q01DX005 (ip), vehicle: Klucel + Tween-80): 90 % of control
T/C (dose: 100.0 mg/kg/injection, schedule: Q01DX005 (ip), vehicle: Klucel + Tween-80): 90 % of control
T/C (dose: 200.0 mg/kg/injection, schedule: Q01DX005 (ip), vehicle: Klucel + Tween-80): 95 % of control

C=CCCc1ccccc1/C=N/NS(=O)(=O)c1ccc(C)cc1
T/C (dose: 100.0 mg/kg/injection, schedule: Q01DX001 (ip), vehicle: saline with Tween-80): 97 % of control
T/C (dose: 200.0 mg/kg/injection, schedule: Q01DX001 (ip), vehicle: saline with Tween-80): 88 % of control
T/C (dose: 400.0 mg/kg/injection, schedule: Q01DX001 (ip), vehicle: saline with Tween-80): 101 % of control

COC(=O)C[N+](=O)[O-]
T/C (dose: 50.0 mg/kg/injection, schedule: Q01DX009 (ip), vehicle: saline): 103 % of control
T/C [1]: 99 % of control
T/C [2]: 110 % of control

O=C(Nc1ccccc1)OCC[N+](CCO)(CCO)CCO
T/C (dose: 60.0 mg/kg/injection, schedule: Q01DX005 (ip), vehicle: water): 100 % of control
T/C (dose: 120.0 mg/kg/injection, schedule: Q01DX005 (ip), vehicle: water): 100 % of control
T/C (dose: 240.0 mg/kg/injection, schedule: Q01DX005 (ip), vehicle: water): 99 % of control

From PubChem BioAssay AID330 (DTP/NCI, 2004)
